Source: PubChem BioAssay AID1963959 (Molecular Pharmacology Branch, DTP, NCI, 2024)
pIC50: −log10 of the molar value.

Test system: T-47D spheroids with HUVEC/MSC, viability
Assay: Anticancer human tumor T-47D cell line growth inhibition [PI3K];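 note: spheroids exposed to agents for seven days before reading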;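 for viability, T/C: percent of DMSO vehicle control luminescence so 100% = untreated growth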
Conditions: for pIC50: curve of first compound; for viability, T/C: stronger effect = lower value
In short: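 Spheroid viability read-out. Co-cultures contained the tumor line plus HUVEC and human MSCs. Each agent was paired with a PI3K inhibitor (inavolisib, alpelisib, duvelisib, copanlisib) across half-log dilutions starting at clinical Cmax, or at 10 microM when Cmax was unknown.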

Cn1cnc2c(F)c(Nc3ccc(Br)cc3Cl)c(C(=O)NOCCO)cc21 + Cc1nc(NC(=O)N2CCCC2C(N)=O)sc1-c1ccnc(C(C)(C)C(F)(F)F)c1
pIC50 (second compound 0.0316 µM): < 5.52 | pIC50 (second compound 0.1 µM): < 5.52 | pIC50 (second compound 0.316 µM): < 5.52 | pIC50 (second compound 1 µM): < 5.52 | pIC50 (second compound 3.16 µM): < 5.52 | pIC50 (second compound 10 µM): > 8.02 | viability, T/C (second compound 0.0316 µM, first compound 0.00949 µM): 118% | viability, T/C (second compound 0.0316 µM, first compound 0.03 µM): 93.1% | viability, T/C (second compound 0.0316 µM, first compound 0.0949 µM): 92.6% | viability, T/C (second compound 0.0316 µM, first compound 0.3 µM): 85.5% | viability, T/C (second compound 0.0316 µM, first compound 0.949 µM): 93.1% | viability, T/C (second compound 0.0316 µM, first compound 3 µM): 105% | viability, T/C (second compound 0.1 µM, first compound 0.00949 µM): 94.9% | viability, T/C (second compound 0.1 µM, first compound 0.03 µM): 96.7% | viability, T/C (second compound 0.1 µM, first compound 0.0949 µM): 85.7% | viability, T/C (second compound 0.1 µM, first compound 0.3 µM): 96.1% | viability, T/C (second compound 0.1 µM, first compound 0.949 µM): 84.9% | viability, T/C (second compound 0.1 µM, first compound 3 µM): 92.3% | viability, T/C (second compound 0.316 µM, first compound 0.00949 µM): 97.4% | viability, T/C (second compound 0.316 µM, first compound 0.03 µM): 102% | viability, T/C (second compound 0.316 µM, first compound 0.0949 µM): 92.6% | viability, T/C (second compound 0.316 µM, first compound 0.3 µM): 91.2% | viability, T/C (second compound 0.316 µM, first compound 0.949 µM): 95.5% | viability, T/C (second compound 0.316 µM, first compound 3 µM): 92.3% | viability, T/C (second compound 1 µM, first compound 0.00949 µM): 88.2% | viability, T/C (second compound 1 µM, first compound 0.03 µM): 81.3% | viability, T/C (second compound 1 µM, first compound 0.0949 µM): 96.2% | viability, T/C (second compound 1 µM, first compound 0.3 µM): 93.4% | viability, T/C (second compound 1 µM, first compound 0.949 µM): 85.8% | viability, T/C (second compound 1 µM, first compound 3 µM): 96% | viability, T/C (second compound 3.16 µM, first compound 0.00949 µM): 77% | viability, T/C (second compound 3.16 µM, first compound 0.03 µM): 67.8% | viability, T/C (second compound 3.16 µM, first compound 0.0949 µM): 65.4% | viability, T/C (second compound 3.16 µM, first compound 0.3 µM): 65.5% | viability, T/C (second compound 3.16 µM, first compound 0.949 µM): 66.8% | viability, T/C (second compound 3.16 µM, first compound 3 µM): 72.2% | viability, T/C (second compound 10 µM, first compound 0.00949 µM): 36.7% | viability, T/C (second compound 10 µM, first compound 0.03 µM): 38.9% | viability, T/C (second compound 10 µM, first compound 0.0949 µM): 41.8% | viability, T/C (second compound 10 µM, first compound 0.3 µM): 37.7% | viability, T/C (second compound 10 µM, first compound 0.949 µM): 39.6% | viability, T/C (second compound 10 µM, first compound 3 µM): 36.6%
